Earlier results in patent US20080009496A1, “MUTAGENIC HETEROCYCLES” (Koronis Pharmaceuticals, Inc., priority 2003, published 2008).

Tests used:
[1] = deamination product of 5-aza-dC
HIV = conditions: in vitro

| Compound | antineoplastic activity [1] | inhibition of HIV replication (HIV) |
| --- | --- | --- |
| O=c1ncn([C@H]2C[C@H](O)[C@@H](CO)O2)c(=O)[nH]1 [5-aza-dU, 5-aza-2′-deoxyuridine] | loss of antineoplastic activity | – |
| Nc1ncn([C@H]2C[C@H](O)[C@@H](CO)O2)c(=O)n1 [5-aza-dC, 5-aza-2′-deoxycytidine] | – | inhibit HIV replication in vitro |
